Laboratory results reported in paper PMC5329131 (Biochimica et biophysica acta, 2017).
Where no end group is shown, it is not given here.

Columns and labels:
[1] = molecular target: RyR1 (Oryctolagus cuniculus) (UniProt P11716); assay: [3H]ryanodine binding; conditions: cited from earlier work
[2] = system: rabbit skeletal heavy SR vesicles (RyR1); assay: Ca2+ release from heavy SR vesicles; format: biochemical; conditions: for Ca2+ release by vesicles (quality control): response to caffeine, 4-cmc and A23187; for Ca2+ release by RyR agonists vs A23187: same vesicles, data not shown
[3] = system: SR Ca2+ release (RyR1); conditions: ref Xiao et al., 2016; cited from earlier work
[4] = system: RyR1; conditions: alanine scanning of Imperacalcin; ref Lee et al., 2004; cited from earlier work
[5] = system: RyRs; conditions: cited from earlier work

Sequence of UniProt P11716 (P11716 whole entry): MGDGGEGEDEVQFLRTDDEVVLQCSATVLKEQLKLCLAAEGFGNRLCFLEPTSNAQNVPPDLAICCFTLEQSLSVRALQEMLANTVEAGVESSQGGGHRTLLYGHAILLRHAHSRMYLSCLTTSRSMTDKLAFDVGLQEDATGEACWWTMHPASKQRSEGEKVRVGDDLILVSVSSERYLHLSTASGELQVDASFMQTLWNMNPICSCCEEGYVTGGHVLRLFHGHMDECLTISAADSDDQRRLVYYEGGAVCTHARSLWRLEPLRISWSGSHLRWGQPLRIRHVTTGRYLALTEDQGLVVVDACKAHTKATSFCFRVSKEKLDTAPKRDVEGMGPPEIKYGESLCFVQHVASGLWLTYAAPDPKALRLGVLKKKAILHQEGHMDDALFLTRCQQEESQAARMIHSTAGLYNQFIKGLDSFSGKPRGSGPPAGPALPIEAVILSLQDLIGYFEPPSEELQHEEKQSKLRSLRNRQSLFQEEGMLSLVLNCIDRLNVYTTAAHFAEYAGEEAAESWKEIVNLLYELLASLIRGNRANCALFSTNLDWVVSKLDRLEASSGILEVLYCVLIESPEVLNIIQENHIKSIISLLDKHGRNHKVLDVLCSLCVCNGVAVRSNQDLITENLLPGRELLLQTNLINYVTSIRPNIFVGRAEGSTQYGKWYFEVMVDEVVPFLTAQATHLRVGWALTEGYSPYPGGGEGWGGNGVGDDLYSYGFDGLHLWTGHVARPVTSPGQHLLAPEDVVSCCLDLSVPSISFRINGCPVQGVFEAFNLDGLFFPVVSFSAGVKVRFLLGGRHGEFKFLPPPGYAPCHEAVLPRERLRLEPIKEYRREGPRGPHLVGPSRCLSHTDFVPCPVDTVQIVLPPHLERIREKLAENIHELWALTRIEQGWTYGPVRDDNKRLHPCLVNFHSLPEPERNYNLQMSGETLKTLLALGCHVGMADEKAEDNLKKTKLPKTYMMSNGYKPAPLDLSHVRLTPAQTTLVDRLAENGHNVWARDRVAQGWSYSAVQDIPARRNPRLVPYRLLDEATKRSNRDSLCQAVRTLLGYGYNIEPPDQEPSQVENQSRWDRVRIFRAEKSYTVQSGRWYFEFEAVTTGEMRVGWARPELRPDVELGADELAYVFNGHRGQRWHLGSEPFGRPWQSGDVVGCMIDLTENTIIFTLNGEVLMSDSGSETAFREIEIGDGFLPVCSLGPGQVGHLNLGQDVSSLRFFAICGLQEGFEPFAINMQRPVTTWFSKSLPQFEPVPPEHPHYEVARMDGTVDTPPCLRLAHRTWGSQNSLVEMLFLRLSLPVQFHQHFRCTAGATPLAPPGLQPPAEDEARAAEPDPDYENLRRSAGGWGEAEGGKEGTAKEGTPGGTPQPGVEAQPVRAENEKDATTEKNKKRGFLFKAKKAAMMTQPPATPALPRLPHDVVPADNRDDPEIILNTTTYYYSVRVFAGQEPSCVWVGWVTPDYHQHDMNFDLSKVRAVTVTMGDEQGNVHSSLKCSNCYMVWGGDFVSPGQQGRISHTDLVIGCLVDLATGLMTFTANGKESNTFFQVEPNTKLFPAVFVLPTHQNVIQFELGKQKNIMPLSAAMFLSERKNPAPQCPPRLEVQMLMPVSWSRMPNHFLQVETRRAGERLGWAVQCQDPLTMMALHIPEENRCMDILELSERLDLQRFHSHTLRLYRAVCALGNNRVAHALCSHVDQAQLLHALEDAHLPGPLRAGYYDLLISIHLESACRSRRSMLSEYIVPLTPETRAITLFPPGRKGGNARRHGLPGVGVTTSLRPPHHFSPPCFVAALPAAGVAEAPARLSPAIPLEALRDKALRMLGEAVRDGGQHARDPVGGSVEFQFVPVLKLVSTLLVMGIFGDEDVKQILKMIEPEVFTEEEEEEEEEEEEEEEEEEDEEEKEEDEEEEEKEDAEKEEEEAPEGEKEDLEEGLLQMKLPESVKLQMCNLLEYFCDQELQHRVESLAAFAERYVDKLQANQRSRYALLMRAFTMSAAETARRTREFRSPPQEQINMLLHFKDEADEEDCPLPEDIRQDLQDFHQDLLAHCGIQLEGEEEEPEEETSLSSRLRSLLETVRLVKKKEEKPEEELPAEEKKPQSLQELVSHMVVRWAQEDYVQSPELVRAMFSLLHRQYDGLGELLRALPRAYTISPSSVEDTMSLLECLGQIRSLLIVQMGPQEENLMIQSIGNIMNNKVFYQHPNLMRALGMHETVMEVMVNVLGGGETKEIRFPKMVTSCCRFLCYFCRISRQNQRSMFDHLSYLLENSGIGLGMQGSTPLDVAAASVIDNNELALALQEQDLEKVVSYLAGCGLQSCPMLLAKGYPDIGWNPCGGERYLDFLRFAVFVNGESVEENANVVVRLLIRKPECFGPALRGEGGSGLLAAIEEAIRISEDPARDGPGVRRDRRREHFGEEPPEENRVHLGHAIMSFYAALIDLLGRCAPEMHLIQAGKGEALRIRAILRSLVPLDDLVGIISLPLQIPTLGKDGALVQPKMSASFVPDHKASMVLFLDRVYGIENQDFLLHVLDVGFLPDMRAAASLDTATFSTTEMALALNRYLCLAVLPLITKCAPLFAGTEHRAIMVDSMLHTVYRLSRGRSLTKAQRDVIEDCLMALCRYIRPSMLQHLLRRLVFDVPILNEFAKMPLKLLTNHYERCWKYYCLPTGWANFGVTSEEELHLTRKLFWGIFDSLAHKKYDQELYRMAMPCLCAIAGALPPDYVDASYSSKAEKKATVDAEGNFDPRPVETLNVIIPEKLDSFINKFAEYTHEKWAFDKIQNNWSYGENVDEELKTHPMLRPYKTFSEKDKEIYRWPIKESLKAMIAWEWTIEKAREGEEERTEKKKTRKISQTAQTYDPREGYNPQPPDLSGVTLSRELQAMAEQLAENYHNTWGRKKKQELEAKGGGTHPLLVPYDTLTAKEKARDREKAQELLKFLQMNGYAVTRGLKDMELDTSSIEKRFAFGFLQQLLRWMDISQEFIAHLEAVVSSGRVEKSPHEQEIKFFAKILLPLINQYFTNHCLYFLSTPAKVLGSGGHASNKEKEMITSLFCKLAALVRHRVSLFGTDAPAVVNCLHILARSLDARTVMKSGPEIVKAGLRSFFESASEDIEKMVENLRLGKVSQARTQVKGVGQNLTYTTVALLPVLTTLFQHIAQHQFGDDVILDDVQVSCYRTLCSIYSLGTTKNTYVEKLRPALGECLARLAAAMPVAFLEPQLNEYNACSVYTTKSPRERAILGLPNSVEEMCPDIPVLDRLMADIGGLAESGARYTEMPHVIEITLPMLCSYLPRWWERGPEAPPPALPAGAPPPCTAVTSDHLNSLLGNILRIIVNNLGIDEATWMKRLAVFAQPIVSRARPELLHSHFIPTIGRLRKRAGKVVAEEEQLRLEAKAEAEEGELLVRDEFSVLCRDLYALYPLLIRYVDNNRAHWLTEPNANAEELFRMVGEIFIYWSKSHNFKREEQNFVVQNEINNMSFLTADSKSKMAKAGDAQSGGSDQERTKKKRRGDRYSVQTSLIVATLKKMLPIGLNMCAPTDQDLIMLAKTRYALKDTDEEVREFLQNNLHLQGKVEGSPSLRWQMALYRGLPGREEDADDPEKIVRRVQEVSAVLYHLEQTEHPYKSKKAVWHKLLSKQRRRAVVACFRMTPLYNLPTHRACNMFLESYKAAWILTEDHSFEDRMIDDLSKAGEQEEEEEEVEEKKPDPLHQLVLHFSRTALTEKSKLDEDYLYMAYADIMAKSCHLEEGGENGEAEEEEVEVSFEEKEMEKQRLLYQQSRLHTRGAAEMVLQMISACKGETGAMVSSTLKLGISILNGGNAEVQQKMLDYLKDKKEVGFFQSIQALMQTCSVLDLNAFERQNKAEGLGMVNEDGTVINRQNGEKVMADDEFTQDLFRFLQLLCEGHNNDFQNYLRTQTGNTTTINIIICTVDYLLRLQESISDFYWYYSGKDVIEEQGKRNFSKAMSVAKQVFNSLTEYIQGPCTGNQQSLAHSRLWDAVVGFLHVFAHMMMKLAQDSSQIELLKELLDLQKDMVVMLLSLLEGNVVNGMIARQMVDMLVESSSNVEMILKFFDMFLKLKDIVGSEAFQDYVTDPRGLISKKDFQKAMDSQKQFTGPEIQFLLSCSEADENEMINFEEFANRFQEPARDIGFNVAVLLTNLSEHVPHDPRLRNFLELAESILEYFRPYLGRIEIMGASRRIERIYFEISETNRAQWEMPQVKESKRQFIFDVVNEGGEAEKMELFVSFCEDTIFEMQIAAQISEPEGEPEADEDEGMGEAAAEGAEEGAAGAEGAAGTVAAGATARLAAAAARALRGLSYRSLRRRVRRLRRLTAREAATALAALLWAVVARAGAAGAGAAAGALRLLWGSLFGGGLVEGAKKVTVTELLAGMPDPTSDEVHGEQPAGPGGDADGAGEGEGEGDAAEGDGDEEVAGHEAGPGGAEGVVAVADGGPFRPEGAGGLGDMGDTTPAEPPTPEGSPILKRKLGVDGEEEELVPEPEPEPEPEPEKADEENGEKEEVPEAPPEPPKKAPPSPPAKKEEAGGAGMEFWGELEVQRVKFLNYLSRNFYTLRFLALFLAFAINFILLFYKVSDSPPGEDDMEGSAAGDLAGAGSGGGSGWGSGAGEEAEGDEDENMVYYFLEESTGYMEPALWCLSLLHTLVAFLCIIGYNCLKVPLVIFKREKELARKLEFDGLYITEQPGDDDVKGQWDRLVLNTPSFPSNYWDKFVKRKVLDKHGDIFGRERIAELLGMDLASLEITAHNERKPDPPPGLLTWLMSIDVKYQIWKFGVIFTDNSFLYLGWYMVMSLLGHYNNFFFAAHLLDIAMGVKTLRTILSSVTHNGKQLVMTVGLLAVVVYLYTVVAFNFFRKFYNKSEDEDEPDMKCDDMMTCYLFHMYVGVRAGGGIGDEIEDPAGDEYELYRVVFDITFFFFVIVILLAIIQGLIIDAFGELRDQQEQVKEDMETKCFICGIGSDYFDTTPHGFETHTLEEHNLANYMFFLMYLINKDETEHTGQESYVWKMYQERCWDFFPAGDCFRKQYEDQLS

Opicalcin2 (from UniProt P60253)
Kd [1]: 3.2 nM

Cc1cc(O)ccc1Cl [4-cmc]
Ca2+ release by vesicles (quality control) [2]: equivalent amount of Ca^2+ | Ca2+ release by RyR agonists vs A23187 [2]: release roughly equivalent levels of Ca^2+ in these vesicles as that emptied by A23187

Vejocalcin (from UniProt P0DPT1)
Kd [1]: 3.7 nM

Opicalcin2: calcin from Opistophthalmus carinatus, UniProt P60253 (GDCLPHLKRCKENNDCCSKKCKRRGANPEKRCR; ends and bridges not checked; cysteine pairing not given here; UniProt P60253 34-66, looked up)
binding affinity vs ability to stimulate Ca2+ release [3]: strong binding affinity but weaker ability to stimulate Ca^2+ release

N14A: alanine-scanning mutant N14A of Imperacalcin (GDCLPHLKRCKADADCCGKKCKRRGTNAEKRCR; ends and bridges not checked; cysteine pairing not given here; UniProt P59868 1-33, looked up, variant N14A)
influence of mutation on binding affinity [4]: almost no influence on binding affinity

Cn1c(=O)c2c(ncn2C)n(C)c1=O [Caffeine, caffeine]
Ca2+ release by vesicles (quality control) [2]: equivalent amount of Ca^2+ | Ca2+ release by RyR agonists vs A23187 [2]: release roughly equivalent levels of Ca^2+ in these vesicles as that emptied by A23187

CNc1ccc2oc(C[C@H]3O[C@@]4(CC[C@H]3C)O[C@H]([C@H](C)C(=O)c3ccc[nH]3)[C@H](C)C[C@H]4C)nc2c1C(=O)O [A23187]
Ca2+ release by vesicles (quality control) [2]: equivalent amount of Ca^2+

Opicalcin1 (from UniProt P60252)
Kd [1]: 0.3 nM

Maurocalcin (from UniProt P60254)
Kd [1]: 26.4 nM

Hadrucalcin (from UniProt B8QG00)
Kd [1]: 14.8 nM

Hemicalcin (from UniProt A0A1L4BJ42)
Kd [1]: 6.9 nM

Imperacalcin (from UniProt P59868)
Kd [1]: 8.7 nM

Imperacalcin: 33-amino acid calcin from Pandinus imperator, UniProt P59868 (GDCLPHLKRCKADNDCCGKKCKRRGTNAEKRCR; ends and bridges not checked; cysteine pairing not given here; UniProt P59868 1-33, looked up)
binding site by single RyR1 channel analysis ([5]; ref Tripathy et al., 1998): enters the channel vestibule and binds to a single site located within the ion conduction pathway and close to the voltage drop of the channel | effect on RyR gating ([5]; ref not given): increases their activity by inducing the appearance of a long-lived subconductance state

Urocalcin (from UniProt L0GBR1)
Kd [1]: 376 nM
